# Experimental data: US20100093642A1, “NOVEL POLYPEPTIDES” (priority 2006, published 2010)
# Residues, ends and D or L forms follow the SMILES beside them. No end group written: not given here.
# Tests used:
# [1] = system: E. coli K-12; assay: Bacterial cell viability, lux luminescence and OD600, with or without LPS; type: cell-based, Escherichia coli; settings: co-incubation with 2.5 μM Aeromonas salmonicida LPS
# Text: To evaluate the effect of antimicrobial peptides on the viability of bacteria in a fast and reliable manner we used the lux CDABE operon from Photorhabdus luminescens as a reporter system in gram negative test bacteria and the modified luxABCDE operon in S. aureus (Vesterlund et al. 2004). Bacterial bioluminescence is directly dependent on metabolic activity, since reduction equivalents are needed to drive light emission. Any form of interruption of bacterial cell integrity or metabolism will therefore be detected as a reduction in light emission.
# For the assay we used S. aureus (RN4220), E. coli K-12 and Salmonella enterica serovar typhimurium (ATCC 14028) transformed with the respective lux-operon containing plasmids (Vesterlund et al. 2004).
# For each experiment a fresh colony was picked from Luria-Bertani plates supplemented with 10 μg/ml of erythromycin in case of S. aureus and with 100 μg/ml of ampicillin in case of E. coli and S. enterica serovar Typhimurium. Each colony was suspended in 5 ml of Müller-Hinton medium with appropriate antibiotics. The culture was incubated over night at 37° C. in a shaking incubator. The next morning 0.5 ml of this culture was transferred to 30 ml fresh MH medium in an Erlenmeyer-flask supplemented with the respective antibiotic. The flask was incubated (200 rpm shaking; 37° C.) until an OD600 of 0.5-0.8 was reached. The culture was then diluted to an OD600 of about 0.02-0.03 before transfer to the 96 well opaque plates with optical bottom (Packard ViewPlate) used for the assay.
# The synthesized peptides were dissolved in water and aliquots frozen at −18° C. until use. Twofold dilutions of test peptides (final concentrations ranging from 0.31 to 80 μM) were directly prepared in 96 well microtiter plates in a volume of 10 μl in water. 90 μl is of indicator bacteria in MH medium were added directly to the prepared and pre-warmed (30 minutes at 37° C.) plate before starting the measurement in a Victor multiplate reader (Perkin Elmer) at 37° C. Both OD600 and luminescence in counts per second (cps) were followed over 5 hours in measuring intervals of 5 minutes. The plates where shaken before each measurement (20 sec.; 5 mm orbital shaking; 10 sec waiting). The growth curves and light emission curves were drawn and evaluated to determine the MIC for each indicator strain. The MIC was defined as the concentration of test compound causing more than 50% reduction in bioluminescence (cps) or optical density (OD600) after 5 hours, compared to the growth control. Cecropin P1 was used as positive control. […]
# A second plate with an otherwise similar setup (as described for the luminescence assay in example 3) was prepared, but with addition of Aeromonas salmonicida LPS to the peptide dilutions before pre-warming. […]
# [2] = system: human embryonic lung fibroblast cell line MRC-5; type: cell-based; settings: 24 h
# [3] = system: human colorectal adenocarcinoma cell line HT-29; type: cell-based; settings: 24 h
Molecule,"MIC, more than 50% reduction in optical density, E. coli, P + LPS ([1]; OD600, 5 hours) [µM]","MIC, more than 50% reduction in luminescence, E. coli, P + LPS ([1]; luminescence (cps), 5 hours) [µM]",IC50 [2] [µM],IC50 [3] [µM]
CC[C@H](C)[C@H](NC(=O)CNC(=O)[C@H](CO)NC(=O)[C@H](CCCCN)NC(=O)[C@@H](NC(=O)[C@H](C)NC(=O)[C@H](Cc1c[nH]cn1)NC(=O)[C@H](CO)NC(=O)[C@@H](NC(=O)[C@H](CCCCN)NC(=O)[C@H](Cc1c[nH]cn1)NC(=O)[C@H](Cc1ccccc1)NC(=O)[C@@H](NC(=O)[C@H](CCCCN)NC(=O)[C@H](CCCCN)NC(=O)[C@H](Cc1ccccc1)NC(=O)C(Cc1c[nH]c2ccc(Br)cc12)NC(=O)CN)[C@@H](C)O)C(C)C)C(C)C)C(=O)N[C@@H](Cc1c[nH]cn1)C(=O)N[C@@H](C)C(=O)O (stereo partly shown) [P17 HC-Br (1-20)] (HELM PEPTIDE1{G.[O=C(C(Cc1c[nH]c2ccc(Br)cc12)N[*:1])[*:2]].F.K.K.T.F.H.K.V.S.H.A.V.K.S.G.I.H.A}$$$$V2.0; N-terminus and C-terminus assumed),40,20,,
GWFKKTFHKVSHAVKSGIHAGQRGCSALGF [P17 HC],,,53,52
